# Data from patent EP1202975B1, “SUBSTITUTED POLYCYCLIC ARYL AND HETEROARYL PYRAZINONES USEFUL FOR SELECTIVE INHIBITION OF THE COAGULATION CASCADE” (Pharmacia Corporation, priority 1999, dated 2000).
# Where two headings read alike, the source gives them in different places.
# How the values were obtained:
# Human factor Xa = Human factor Xa (Homo sapiens, UniProt P00742)
# TF-VIIa = target: T1, TF-VIIa (Homo sapiens, UniProt P08709); assay: TF-VIIa Assay; type: biochemical
# T1 construct: 2nM recombinant human factor VIIa; purchased American Diagnostica, Greenwich CT; host or cells: soluble TF made in house in E. coli
# T1 sequence (P08709 213-466 limits assumed): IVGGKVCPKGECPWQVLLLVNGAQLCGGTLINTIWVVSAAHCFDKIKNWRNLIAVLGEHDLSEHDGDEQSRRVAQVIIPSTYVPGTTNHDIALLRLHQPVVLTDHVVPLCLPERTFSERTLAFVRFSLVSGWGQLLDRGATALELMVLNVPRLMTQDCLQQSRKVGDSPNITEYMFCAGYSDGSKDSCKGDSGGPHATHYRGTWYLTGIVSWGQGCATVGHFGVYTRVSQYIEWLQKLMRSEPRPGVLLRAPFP
# T1 sequence (P08709 61-212 limits assumed): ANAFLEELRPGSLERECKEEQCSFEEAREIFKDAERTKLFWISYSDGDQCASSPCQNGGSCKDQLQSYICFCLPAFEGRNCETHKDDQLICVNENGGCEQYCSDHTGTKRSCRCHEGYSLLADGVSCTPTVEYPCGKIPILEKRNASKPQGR
# T1 sequence (P13726 33-251 partner limits assumed): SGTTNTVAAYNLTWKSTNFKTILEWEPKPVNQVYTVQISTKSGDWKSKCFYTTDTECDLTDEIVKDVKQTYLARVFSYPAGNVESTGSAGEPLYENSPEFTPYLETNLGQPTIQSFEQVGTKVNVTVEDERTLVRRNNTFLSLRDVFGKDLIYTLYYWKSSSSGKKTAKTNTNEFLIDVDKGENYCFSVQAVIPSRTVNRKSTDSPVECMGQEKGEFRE
# [1] = cells given as a plain number (IC50); read-out: IC50 or % Inhibition TF-VIIa (30 µM)
# [2] = read-out: IC50 or % Inhibition TF-VIIa (30 µM); cells given as a plain number (IC50)
# Sequence of Human factor Xa (P00742 235-488 limits assumed): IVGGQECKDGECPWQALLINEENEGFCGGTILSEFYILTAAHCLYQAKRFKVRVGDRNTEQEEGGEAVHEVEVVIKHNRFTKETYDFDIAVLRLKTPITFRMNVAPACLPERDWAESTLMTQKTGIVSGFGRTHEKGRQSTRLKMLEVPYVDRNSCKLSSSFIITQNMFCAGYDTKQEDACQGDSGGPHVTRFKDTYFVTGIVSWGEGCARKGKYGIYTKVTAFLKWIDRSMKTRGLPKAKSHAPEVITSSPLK
# Sequence of Human factor Xa (P00742 41-179 limits assumed): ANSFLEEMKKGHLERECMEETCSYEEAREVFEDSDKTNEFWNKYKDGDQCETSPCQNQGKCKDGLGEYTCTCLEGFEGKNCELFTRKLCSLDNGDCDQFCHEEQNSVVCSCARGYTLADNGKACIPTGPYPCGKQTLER
SMILES,IC50 or % Inhibition Factor Xa (30 µM) (Human factor Xa),IC50 (TF-VIIa; [1]),IC50 (TF-VIIa; [2]),IC50 or % Inhibition TF-VIIa (30 µM) (TF-VIIa)
N=C(N)c1ccc(CNC(=O)Cn2c(-c3ccccc3)c(Cl)nc(NCc3ccccc3)c2=O)cc1 [1471-9],29%,0.77 µM,,
N=C(N)c1ccc(CNC(=O)Cn2c(-c3ccccc3)c(Cl)nc(NCCc3ccc(Cl)cc3)c2=O)cc1 [1471-10],45%,0.6 µM,,
N=C(N)c1ccc(CNC(=O)Cn2c(-c3ccccc3)c(Cl)nc(NCc3ccncc3)c2=O)cc1 [1471-11],9%,,1.69 µM,
N=C(N)c1ccc(CNC(=O)Cn2c(-c3ccccc3)c(Cl)nc(NCCN3CCOCC3)c2=O)cc1 [1471-12],9%,7.97 µM,,
N=C(N)c1ccc(CNC(=O)Cn2c(-c3ccccc3)c(Cl)nc(NCCc3cccnc3)c2=O)cc1 [1471-16],23%,,0.82 µM,
N=C(N)c1ccc(CNC(=O)Cn2c(-c3ccc(Cl)cc3)c(Cl)nc(NCCc3ccc(Cl)cc3)c2=O)cc1 [1471-18],26%,,11.2 µM,
N=C(N)c1ccc(CNC(=O)Cn2c(-c3ccc(Cl)cc3)c(Cl)nc(NCc3ccncc3)c2=O)cc1 [1471-19],26%,,,33%
N=C(N)c1ccc(CNC(=O)Cn2c(-c3ccc(Cl)cc3)c(Cl)nc(NCCN3CCOCC3)c2=O)cc1 [1471-20],34%,,,42%
N=C(N)c1ccc(CNC(=O)Cn2c(-c3ccc(Cl)cc3)c(Cl)nc(NCCc3cccc(Cl)c3)c2=O)cc1 [1471-22],28%,,14.6 µM,
N=C(N)c1ccc(CNC(=O)Cn2c(-c3ccc(Cl)cc3)c(Cl)nc(NCCc3ccccc3)c2=O)cc1 [1471-23],36%,8.88 µM,,
N=C(N)c1ccc(CNC(=O)Cn2c(-c3cccc(Cl)c3)c(Cl)nc(NCc3ccncc3)c2=O)cc1 [1471-27],16%,,4.19 µM,
N=C(N)c1ccc(CNC(=O)Cn2c(-c3cccc(Cl)c3)c(Cl)nc(NCCN3CCOCC3)c2=O)cc1 [1471-28],8%,,7.22 µM,
N=C(N)c1ccc(CNC(=O)Cn2c(-c3cccc(Cl)c3)c(Cl)nc(NCCc3ccncc3)c2=O)cc1 [1471-29],21%,,2.18 µM,
N=C(N)c1ccc(CNC(=O)Cn2c(-c3cccc(Cl)c3)c(Cl)nc(NCCc3cccc(Cl)c3)c2=O)cc1 [1471-30],41%,,0.83 µM,
N=C(N)c1ccc(CNC(=O)Cn2c(-c3cccc(Cl)c3)c(Cl)nc(NCCc3ccccc3)c2=O)cc1 [1471-31],17%,1.98 µM,,
N=C(N)c1ccc(CNC(=O)Cn2c(-c3cccc(Cl)c3)c(Cl)nc(NCCc3cccnc3)c2=O)cc1 [1471-32],25%,,1.19 µM,
COc1ccc(-c2c(Cl)nc(NCc3ccccc3)c(=O)n2CC(=O)NCc2ccc(C(=N)N)cc2)cc1 [1471-33],22%,,,31%
COc1ccc(-c2c(Cl)nc(NCCc3ccc(Cl)cc3)c(=O)n2CC(=O)NCc2ccc(C(=N)N)cc2)cc1 [1471-34],24%,,17.5 µM,
COc1ccc(-c2c(Cl)nc(NCc3ccncc3)c(=O)n2CC(=O)NCc2ccc(C(=N)N)cc2)cc1 [1471-35],22%,,,37%
COc1ccc(-c2c(Cl)nc(NCCN3CCOCC3)c(=O)n2CC(=O)NCc2ccc(C(=N)N)cc2)cc1 [1471-36],6%,,,11%
COc1ccc(-c2c(Cl)nc(NCCc3ccncc3)c(=O)n2CC(=O)NCc2ccc(C(=N)N)cc2)cc1 [1471-37],7%,,,39%
COc1ccc(-c2c(Cl)nc(NCCc3cccnc3)c(=O)n2CC(=O)NCc2ccc(C(=N)N)cc2)cc1 [1471-40],11%,,,40%
N=C(N)c1ccc(CNC(=O)Cn2c(-c3ccc4c(c3)OCO4)c(Cl)nc(NCc3ccccc3)c2=O)cc1 [1471-41],34%,,18.3 µM,
N=C(N)c1ccc(CNC(=O)Cn2c(-c3ccc4c(c3)OCO4)c(Cl)nc(NCCc3ccc(Cl)cc3)c2=O)cc1 [1471-42],15%,,10.5 µM,

SMILES,IC50 or % Inhibition Factor Xa (30 µM) (Human factor Xa),IC50 (TF-VIIa; [1]),IC50 (TF-VIIa; [2]),IC50 or % Inhibition TF-VIIa (30 µM) (TF-VIIa)
N=C(N)c1ccc(CNC(=O)Cn2c(-c3ccc4c(c3)OCO4)c(Cl)nc(NCc3ccncc3)c2=O)cc1 [1471-43],18%,,25.3 µM,
N=C(N)c1ccc(CNC(=O)Cn2c(-c3ccc4c(c3)OCO4)c(Cl)nc(NCCN3CCOCC3)c2=O)cc1 [1471-44],13%,,,34%
N=C(N)c1ccc(CNC(=O)Cn2c(-c3ccc4c(c3)OCO4)c(Cl)nc(NCCc3ccncc3)c2=O)cc1 [1471-45],24%,,13.2 µM,
N=C(N)c1ccc(CNC(=O)Cn2c(-c3ccc4c(c3)OCO4)c(Cl)nc(NCCc3cccc(Cl)c3)c2=O)cc1 [1471-46],21%,,13 µM,
N=C(N)c1ccc(CNC(=O)Cn2c(-c3ccc4c(c3)OCO4)c(Cl)nc(NCCc3ccccc3)c2=O)cc1 [1471-47],22%,,12.6 µM,
N=C(N)c1ccc(CNC(=O)Cn2c(-c3ccc4c(c3)OCO4)c(Cl)nc(NCCc3cccnc3)c2=O)cc1 [1471-48],17%,,15.7 µM,
CCc1c(Cl)nc(NCCc2ccc(Cl)cc2)c(=O)n1CC(=O)NCc1ccc(C(=N)N)cc1 [1471-58],0%,,12.4 µM,
CCc1c(Cl)nc(NCc2ccncc2)c(=O)n1CC(=O)NCc1ccc(C(=N)N)cc1 [1471-59],0%,,7.52 µM,
CCc1c(Cl)nc(NCCN2CCOCC2)c(=O)n1CC(=O)NCc1ccc(C(=N)N)cc1 [1471-60],0%,,13 µM,
CCc1c(Cl)nc(NCCc2ccncc2)c(=O)n1CC(=O)NCc1ccc(C(=N)N)cc1 [1471-61],0%,,5 µM,
CCc1c(Cl)nc(NCCc2cccc(Cl)c2)c(=O)n1CC(=O)NCc1ccc(C(=N)N)cc1 [1471-62],0%,,,4%
CCc1c(Cl)nc(NCCc2ccccc2)c(=O)n1CC(=O)NCc1ccc(C(=N)N)cc1 [1471-63],2%,3.45 µM,,
CCc1c(Cl)nc(NCCc2cccnc2)c(=O)n1CC(=O)NCc1ccc(C(=N)N)cc1 [1471-64],2%,,3.02 µM,
N=C(N)c1ccc(CNC(=O)Cn2c(-c3ccc(-c4ccccc4)cc3)c(Cl)nc(NCc3ccncc3)c2=O)cc1 [1471-67],16%,,,12%
N=C(N)c1ccc(CNC(=O)Cn2c(-c3ccc(-c4ccccc4)cc3)c(Cl)nc(NCCc3cccc(Cl)c3)c2=O)cc1 [1471-70],12%,,,10%
N=C(N)c1ccc(CNC(=O)Cn2c(-c3ccc(-c4ccccc4)cc3)c(Cl)nc(NCCc3ccccc3)c2=O)cc1 [1471-71],0%,,,6%
N=C(N)c1ccc(CNC(=O)Cn2c(-c3ccc(-c4ccccc4)cc3)c(Cl)nc(NCCc3cccnc3)c2=O)cc1 [1471-72],22%,,,15%
N=C(N)c1ccc(CNC(=O)Cn2c(-c3ccccc3)c(Cl)nc(NC3CCc4ccccc43)c2=O)cc1 (stereo not shown) [1507-02],9%,,9.4 µM,
N=C(N)c1ccc(CNC(=O)Cn2c(-c3ccccc3)c(Cl)nc(NCc3ccccc3Cl)c2=O)cc1 [1507-03],21%,,3.6 µM,
N=C(N)c1ccc(CNC(=O)Cn2c(-c3ccccc3)c(Cl)nc(NCCCn3ccnc3)c2=O)cc1 [1507-05],10%,,4.7 µM,
N=C(N)c1ccc(CNC(=O)Cn2c(-c3ccccc3)c(Cl)nc(NC3Cc4ccccc4C3)c2=O)cc1 [1507-08],1%,,,7%
N=C(N)c1ccc(CNC(=O)Cn2c(-c3ccccc3)c(Cl)nc(NCC(c3ccccc3)c3ccccc3)c2=O)cc1 [1507-09],13%,,22.6 µM,
N=C(N)c1ccc(CNC(=O)Cn2c(-c3ccccc3)c(Cl)nc(NC3CCCc4ccccc43)c2=O)cc1 (stereo not shown) [1507-16],18%,,5.8 µM,
